Like-named read-outs stand apart in the source and are kept apart here.
Settings: Week 4

## CCCN[C@@H]1CCc2nc(N)sc2C1 [Dexpramipexole, (6R)-2-amino-4,5,6,7-tetrahydro-6-(propylamino)benzothiazole]
<50% AEC reduction at Week 16
  Pre-BD FEF25-75 % change from baseline, Max: −9%
  Pre-BD FEF25-75 % change from baseline, Mean ± SD: −19.8 ± 9.58%
  Pre-BD FEF25-75 % change from baseline, Median: −19.3%
  Pre-BD FEF25-75 % change from baseline, Min: −32%
  Pre-BD FEF25-75 % change from baseline, Q1: −27%
  Pre-BD FEF25-75 % change from baseline, Q3: −13%
  Pre-BD FEF25-75 Observed, Max: 950 mL/s
  Pre-BD FEF25-75 Observed, Mean ± SD: 507.5 ± 333.30 mL/s
  Pre-BD FEF25-75 Observed, Median: 440.0 mL/s
  Pre-BD FEF25-75 Observed, Min: 200 mL/s
  Pre-BD FEF25-75 Observed, Q1: 255 mL/s
  Pre-BD FEF25-75 Observed, Q3: 760 mL/s
  Pre-BD FEF25-75 change from baseline, Max: -30 mL/s
  Pre-BD FEF25-75 change from baseline, Mean ± SD: -167.5 ± 191.03 mL/s
  Pre-BD FEF25-75 change from baseline, Median: -100.0 mL/s
  Pre-BD FEF25-75 change from baseline, Min: -440 mL/s
  Pre-BD FEF25-75 change from baseline, Q1: -300 mL/s
  Pre-BD FEF25-75 change from baseline, Q3: -35 mL/s
  Pre-BD FEV1 % change from baseline, Max: −1%
  Pre-BD FEV1 % change from baseline, Mean ± SD: −16.4 ± 15.81%
  Pre-BD FEV1 % change from baseline, Median: −13.3%
  Pre-BD FEV1 % change from baseline, Min: −37%
  Pre-BD FEV1 % change from baseline, Q1: −28%
  Pre-BD FEV1 % change from baseline, Q3: −4%
  Pre-BD FEV1 Observed, Max: 1680 mL
  Pre-BD FEV1 Observed, Mean ± SD: 1260.0 ± 511.53 mL
  Pre-BD FEV1 Observed, Median: 1420.0 mL
  Pre-BD FEV1 Observed, Min: 520 mL
  Pre-BD FEV1 Observed, Q1: 935 mL
  Pre-BD FEV1 Observed, Q3: 1585 mL
  Pre-BD FEV1 change from baseline, Max: -20 mL
  Pre-BD FEV1 change from baseline, Mean ± SD: -212.5 ± 173.47 mL
  Pre-BD FEV1 change from baseline, Median: -215.0 mL
  Pre-BD FEV1 change from baseline, Min: -400 mL
  Pre-BD FEV1 change from baseline, Q1: -355 mL
  Pre-BD FEV1 change from baseline, Q3: -70 mL
  Pre-BD FVC % change from baseline, Max: 0%
  Pre-BD FVC % change from baseline, Mean ± SD: −9.0 ± 13.97%
  Pre-BD FVC % change from baseline, Median: −2.9%
  Pre-BD FVC % change from baseline, Min: −30%
  Pre-BD FVC % change from baseline, Q1: −17%
  Pre-BD FVC % change from baseline, Q3: −1%
  Pre-BD FVC Observed, Max: 3480 mL
  Pre-BD FVC Observed, Mean ± SD: 2755.0 ± 729.41 mL
  Pre-BD FVC Observed, Median: 2875.0 mL
  Pre-BD FVC Observed, Min: 1790 mL
  Pre-BD FVC Observed, Q1: 2215 mL
  Pre-BD FVC Observed, Q3: 3295 mL
  Pre-BD FVC change from baseline, Max: -10 mL
  Pre-BD FVC change from baseline, Mean ± SD: -240.0 ± 350.90 mL
  Pre-BD FVC change from baseline, Median: -95.0 mL
  Pre-BD FVC change from baseline, Min: -760 mL
  Pre-BD FVC change from baseline, Q1: -450 mL
  Pre-BD FVC change from baseline, Q3: -30 mL
  Pre-BD Peak Flow % change from baseline, Max: 428%
  Pre-BD Peak Flow % change from baseline, Mean ± SD: 90.4 ± 224.72%
  Pre-BD Peak Flow % change from baseline, Median: −20.4%
  Pre-BD Peak Flow % change from baseline, Min: −25%
  Pre-BD Peak Flow % change from baseline, Q1: −24%
  Pre-BD Peak Flow % change from baseline, Q3: 205%
  Pre-BD Peak Flow Observed, Max: 211 L/min
  Pre-BD Peak Flow Observed, Mean ± SD: 167.5 ± 49.57 L/min
  Pre-BD Peak Flow Observed, Median: 180.5 L/min
  Pre-BD Peak Flow Observed, Min: 98 L/min
  Pre-BD Peak Flow Observed, Q1: 133 L/min
  Pre-BD Peak Flow Observed, Q3: 202 L/min
  Pre-BD Peak Flow change from baseline, Max: 171 L/min
  Pre-BD Peak Flow change from baseline, Mean ± SD: 11.0 ± 107.23 L/min
  Pre-BD Peak Flow change from baseline, Median: -35.5 L/min
  Pre-BD Peak Flow change from baseline, Min: -56 L/min
  Pre-BD Peak Flow change from baseline, Q1: -49 L/min
  Pre-BD Peak Flow change from baseline, Q3: 71 L/min
>=50% AEC reduction at Week 16
  Pre-BD FEF25-75 % change from baseline, Max: 41%
  Pre-BD FEF25-75 % change from baseline, Mean ± SD: 11.4 ± 25.76%
  Pre-BD FEF25-75 % change from baseline, Median: −2.2%
  Pre-BD FEF25-75 % change from baseline, Min: −5%
  Pre-BD FEF25-75 % change from baseline, Q1: −5%
  Pre-BD FEF25-75 % change from baseline, Q3: 41%
  Pre-BD FEF25-75 Observed, Max: 1030 mL/s
  Pre-BD FEF25-75 Observed, Mean ± SD: 710.0 ± 446.43 mL/s
  Pre-BD FEF25-75 Observed, Median: 900.0 mL/s
  Pre-BD FEF25-75 Observed, Min: 200 mL/s
  Pre-BD FEF25-75 Observed, Q1: 200 mL/s
  Pre-BD FEF25-75 Observed, Q3: 1030 mL/s
  Pre-BD FEF25-75 change from baseline, Max: 300 mL/s
  Pre-BD FEF25-75 change from baseline, Mean ± SD: 90.0 ± 181.93 mL/s
  Pre-BD FEF25-75 change from baseline, Median: -10.0 mL/s
  Pre-BD FEF25-75 change from baseline, Min: -20 mL/s
  Pre-BD FEF25-75 change from baseline, Q1: -20 mL/s
  Pre-BD FEF25-75 change from baseline, Q3: 300 mL/s
  Pre-BD FEV1 % change from baseline, Max: 62%
  Pre-BD FEV1 % change from baseline, Mean ± SD: 24.8 ± 32.69%
  Pre-BD FEV1 % change from baseline, Median: 9.7%
  Pre-BD FEV1 % change from baseline, Min: 2%
  Pre-BD FEV1 % change from baseline, Q1: 2%
  Pre-BD FEV1 % change from baseline, Q3: 62%
  Pre-BD FEV1 Observed, Max: 2110 mL
  Pre-BD FEV1 Observed, Mean ± SD: 1540.0 ± 678.16 mL
  Pre-BD FEV1 Observed, Median: 1720.0 mL
  Pre-BD FEV1 Observed, Min: 790 mL
  Pre-BD FEV1 Observed, Q1: 790 mL
  Pre-BD FEV1 Observed, Q3: 2110 mL
  Pre-BD FEV1 change from baseline, Max: 810 mL
  Pre-BD FEV1 change from baseline, Mean ± SD: 306.7 ± 436.16 mL
  Pre-BD FEV1 change from baseline, Median: 70.0 mL
  Pre-BD FEV1 change from baseline, Min: 40 mL
  Pre-BD FEV1 change from baseline, Q1: 40 mL
  Pre-BD FEV1 change from baseline, Q3: 810 mL
  Pre-BD FVC % change from baseline, Max: 32%
  Pre-BD FVC % change from baseline, Mean ± SD: 15.7 ± 14.81%
  Pre-BD FVC % change from baseline, Median: 11.4%
  Pre-BD FVC % change from baseline, Min: 3%
  Pre-BD FVC % change from baseline, Q1: 3%
  Pre-BD FVC % change from baseline, Q3: 32%
  Pre-BD FVC Observed, Max: 3330 mL
  Pre-BD FVC Observed, Mean ± SD: 2790.0 ± 497.59 mL
  Pre-BD FVC Observed, Median: 2690.0 mL
  Pre-BD FVC Observed, Min: 2350 mL
  Pre-BD FVC Observed, Q1: 2350 mL
  Pre-BD FVC Observed, Q3: 3330 mL
  Pre-BD FVC change from baseline, Max: 810 mL
  Pre-BD FVC change from baseline, Mean ± SD: 380.0 ± 379.87 mL
  Pre-BD FVC change from baseline, Median: 240.0 mL
  Pre-BD FVC change from baseline, Min: 90 mL
  Pre-BD FVC change from baseline, Q1: 90 mL
  Pre-BD FVC change from baseline, Q3: 810 mL
  Pre-BD Peak Flow % change from baseline, Max: 143%
  Pre-BD Peak Flow % change from baseline, Mean ± SD: 63.4 ± 69.42%
  Pre-BD Peak Flow % change from baseline, Median: 28.2%
  Pre-BD Peak Flow % change from baseline, Min: 18%
  Pre-BD Peak Flow % change from baseline, Q1: 18%
  Pre-BD Peak Flow % change from baseline, Q3: 143%
  Pre-BD Peak Flow Observed, Max: 382 L/min
  Pre-BD Peak Flow Observed, Mean ± SD: 260.7 ± 108.49 L/min
  Pre-BD Peak Flow Observed, Median: 227.0 L/min
  Pre-BD Peak Flow Observed, Min: 173 L/min
  Pre-BD Peak Flow Observed, Q1: 173 L/min
  Pre-BD Peak Flow Observed, Q3: 382 L/min
  Pre-BD Peak Flow change from baseline, Max: 225 L/min
  Pre-BD Peak Flow change from baseline, Mean ± SD: 100.7 ± 108.29 L/min
  Pre-BD Peak Flow change from baseline, Median: 50.0 L/min
  Pre-BD Peak Flow change from baseline, Min: 27 L/min
  Pre-BD Peak Flow change from baseline, Q1: 27 L/min
  Pre-BD Peak Flow change from baseline, Q3: 225 L/min

Source: US20250352520A1, “USE OF DEXPRAMIPEXOLE FOR THE TREATMENT OF EOSINOPHILIC COPD” (Areteia Therapeutics, Inc., priority 2024, published 2025)
